# Laboratory results reported in patent US8361487B1, “Ant controllers and method for application thereof” (BASF Aktiengesellschaft, priority 1999, dated 2013).
# System: Coptotermes formosanus Shiraki
# Experiment: Test Example 1: termite-killing test on treated filter paper
# Type: in vivo
# Conditions: mortality class; 1 ml of a 500 ppm solution on filter paper, seven days after inoculation, triplicate group of 10 insects
# Experimental: A filter paper was spread in a glass dish having a diameter of 9 cm, onto which was dropped 1 ml of a 500 ppm solution of the ant controller of the present invention. Then, the filter paper was inoculated with Coptotermes formosanus Shiraki. Seven days after the inoculation, percentage of dead insects was investigated, from which mortality was calculated. The test was carried out with triplicate group of 10 insects.
row,Compound,Termite-killing effect
1,CC(=O)OC(C(=NNC(=O)Nc1ccc(OC(F)(F)F)cc1)c1ccccc1)c1ccccc1 (racemic) [Compound 72],A (100)
2,N#Cc1ccc(CN(NCC(=O)Nc2ccc(OC(F)(F)F)cc2)c2cccc(C(F)(F)F)c2)cc1 [Compound 158],C (89-80)
3,N#Cc1ccc(CC(=NNC(=O)Nc2ccc(S(=O)(=O)C(F)(F)F)cc2)c2ccc(F)cc2)cc1 [Compound 78],A (100)
4,CC(=NN(Cc1ccc(C#N)cc1)c1cccc(Cl)c1)C(=O)Nc1ccc(OC(F)(F)F)cc1 [Compound 140],A (100)
5,N#Cc1ccc(CN(NCC(=O)Nc2ccc(Cl)cc2)c2ccccc2)cc1 [Compound 145],A (100)
6,O=C(NNC(Cc1ccccc1)c1ccccc1)Nc1ccc(OC(F)(F)F)cc1 (racemic) [Compound 85],C (89-80)
7,O=C(NN=C(Cc1ccc(Cl)cc1)c1ccccc1)Nc1ccc(OC(F)(F)F)cc1 [Compound 4],A (100)
8,O=C(NN=C(Cc1ccc([N+](=O)[O-])cc1)c1ccccc1)Nc1ccc(OC(F)(F)F)cc1 [Compound 12],A (100)
9,O=C(CNN(Cc1ccc([N+](=O)[O-])cc1)c1cccc(Cl)c1)Nc1ccc(OC(F)(F)F)cc1 [Compound 150],C (89-80)
10,O=C(NN=C(c1ccccc1)C(O)c1ccc(Cl)cc1)Nc1ccc(Cl)cc1 (stereo not drawn) [Compound 59],C (89-80)
11,N#Cc1ccc(CN(NCC(=O)Nc2ccc(OC(F)(F)F)cc2)c2cccc(F)c2)cc1 [Compound 154],B (99-90)
12,N#Cc1ccc(CN(N=CC(=O)Nc2ccc([S+]([O-])C(F)(F)F)cc2)c2cccc(Cl)c2)cc1 (stereo not drawn) [Compound 133],A (100)
13,COC(C(=NNC(=O)Nc1ccc(Cl)cc1)c1ccccc1)c1ccccc1 (racemic) [Compound 66],A (100)
14,N#Cc1ccc(CC(=NNC(=S)Nc2ccc(Cl)cc2)c2ccccc2)cc1 [Compound 6],A (100)
15,O=[N+]([O-])c1ccc(CC(=NNC(=S)Nc2ccc(OC(F)(F)F)cc2)c2ccccc2)cc1 [Compound 13],A (100)
16,N#Cc1ccc(CC(=NNC(=O)Nc2ccc(S(=O)(=O)C(F)(F)F)cc2)c2cccc(Br)c2)cc1 [Compound 30],A (100)
17,O=C(NN=C(Cc1ccc(Cl)cc1)c1cccc(Cl)c1)Nc1ccc(OC(F)(F)F)cc1 [Compound 16],C (89-80)
18,CC(C(=NNC(=O)Nc1ccc(Cl)cc1)c1ccccc1)c1ccccc1 (stereo not drawn) [Compound 48],A (100)
19,O=C(C=NN(Cc1ccccc1)c1ccccc1)Nc1ccc(OC(F)(F)F)cc1 [Compound 122],D (79-50)
20,FC(F)(F)Oc1ccc(NC(=S)NNC(Cc2ccc(Cl)cc2)c2ccccc2)cc1 (stereo not drawn) [Compound 98],A (100)
21,O=C(NN=C(Cc1ccc(Cl)cc1)c1cccc(F)c1)Nc1ccc(Cl)cc1 [Compound 34],A (100)
22,O=C(NN=C(Cc1ccccc1)c1cccc(F)c1)Nc1ccc(OC(F)(F)F)cc1 [Compound 32],A (100)
23,Cc1cccc(N(Cc2ccc(C#N)cc2)N=CC(=O)Nc2ccc(Cl)cc2)c1 [Compound 136],A (100)

row,Compound,Termite-killing effect
1,N#Cc1cccc(CC(NNC(=O)Nc2ccc(OC(F)(F)F)cc2)c2ccccc2)c1 (stereo not drawn) [Compound 121],C (89-80)
2,O=C(CNN(Cc1ccc(Cl)cc1)c1ccccc1)Nc1ccc(OC(F)(F)F)cc1 [Compound 144],B (99-90)
3,Cc1cccc(C(Cc2ccccc2)=NNC(=O)Nc2ccc(Cl)cc2)c1 [Compound 38],B (99-90)
4,N#Cc1ccc(CC(=NNC(=O)Nc2ccc([S+]([O-])C(F)(F)F)cc2)c2cccc(F)c2)cc1 (stereo not drawn) [Compound 77],A (100)
5,O=C(NN=C(c1ccccc1)C(O)c1ccccc1)Nc1ccc(Cl)cc1 (stereo not drawn) [Compound 57],D (79-50)
6,N#Cc1ccc(CC(NNC(=O)Nc2ccc(OC(F)(F)F)cc2)c2cccc(F)c2)cc1 (stereo not drawn) [Compound 114],B (99-90)
7,Cc1cccc(C(Cc2ccc(C#N)cc2)=NNC(=O)Nc2ccc(OC(F)(F)F)cc2)c1 [Compound 41],A (100)
8,O=C(NNC(Cc1ccc(Cl)cc1)c1cccc(Cl)c1)Nc1ccc(OC(F)(F)F)cc1 (racemic) [Compound 90],A (100)
9,Cc1cccc(N(Cc2ccc(C#N)cc2)NCC(=O)Nc2ccc(Cl)cc2)c1 [Compound 155],A (100)
10,CCNC(=O)N(NC(=O)Nc1ccc(OC(F)(F)F)cc1)C(Cc1ccc(C#N)cc1)c1cccc(Cl)c1 (stereo not drawn) [Compound 103],A (100)
11,O=C(NN=C(Cc1ccccc1)c1ccccc1)Nc1ccc(OC(F)(F)F)cc1 [Compound 2],B (99-90)
12,N#Cc1ccc(CN(N=CC(=O)Nc2ccc(OC(F)(F)F)cc2)c2cccc(C(F)(F)F)c2)cc1 [Compound 139],A (100)
13,N#Cc1ccc(CC(NNC(=O)Nc2ccc(SC(F)(F)F)cc2)c2cccc(Cl)c2)cc1 (stereo not drawn) [Compound 92],A (100)
14,N#Cc1ccc(CC(=NNC(=O)Nc2ccc(OC(F)(F)F)cc2)c2cccc(F)c2)cc1 [Compound 35],A (100)
15,N#Cc1ccc(CC(NNC(=O)Nc2ccc(SC(F)(F)F)cc2)c2cccc(F)c2)cc1 (stereo not drawn) [Compound 115],A (100)
16,N#Cc1ccc(CC(=NNC(=O)Nc2ccc(SC(F)(F)F)cc2)c2cccc(Cl)c2)cc1 [Compound 21],A (100)
17,N#Cc1ccc(CN(NCC(=O)Nc2ccc(OC(F)(F)F)cc2)c2cccc(Cl)c2)cc1 [Compound 152],B (99-90)
18,CC(C(=NNC(=O)Nc1ccc(Cl)cc1)c1ccccc1)c1ccccc1 (racemic) [Compound 64],A (100)
19,N#Cc1ccc(CC(NNC(=O)Nc2ccc([S+]([O-])C(F)(F)F)cc2)c2cccc(F)c2)cc1 (stereo not drawn) [Compound 116],B (99-90)
20,O=C(NN=C(Cc1ccccc1)c1cccc(Cl)c1)Nc1ccc(OC(F)(F)F)cc1 [Compound 15],B (99-90)
21,N#Cc1ccc(C(O)C(=NNC(=O)Nc2ccc(Cl)cc2)c2ccccc2)cc1 (racemic) [Compound 62],A (100)
22,N#Cc1ccc(CC(NNC(=O)Nc2ccc(S(=O)(=O)C(F)(F)F)cc2)c2cccc(C(F)(F)F)c2)cc1 (stereo not drawn) [Compound 120],A (100)
23,O=C(NN=C(Cc1ccc(Cl)cc1)c1cccc(F)c1)Nc1ccc(OC(F)(F)F)cc1 [Compound 33],C (89-80)

row,Compound,Termite-killing effect
1,CC(C(=NNC(=O)Nc1ccc(OC(F)(F)F)cc1)c1ccccc1)c1ccccc1 (stereo not drawn) [Compound 52],A (100)
2,N#Cc1ccc(CN(N=CC(=O)Nc2ccc(Cl)cc2)c2ccccc2)cc1 [Compound 124],D (79-50)
3,Cc1cccc(C(Cc2ccc(C#N)cc2)=NNC(=O)Nc2ccc(Cl)cc2)c1 [Compound 40],D (79-50)
4,O=C(NN=C(Cc1ccccc1)c1cccc(F)c1)Nc1ccc(Cl)cc1 [Compound 31],A (100)
5,O=C(NNC(Cc1ccc([N+](=O)[O-])cc1)c1ccccc1)Nc1ccc(OC(F)(F)F)cc1 (racemic) [Compound 88],A (100)
6,N#Cc1ccccc1CN(N=CC(=O)Nc1ccc(OC(F)(F)F)cc1)c1cccc(Cl)c1 [Compound 142],C (89-80)
7,COC(C(=NNC(=O)Nc1ccc(OC(F)(F)F)cc1)c1ccccc1)c1ccccc1 (racemic) [Compound 67],A (100)
8,Cc1cccc(N(Cc2ccc(C#N)cc2)N=CC(=O)Nc2ccc(OC(F)(F)F)cc2)c1 [Compound 137],A (100)
9,Cc1cccc(N(Cc2ccc(C#N)cc2)NCC(=O)Nc2ccc(OC(F)(F)F)cc2)c1 [Compound 156],B (99-90)
10,N#Cc1ccc(CN(NCC(=O)Nc2ccc(Cl)cc2)c2cccc(F)c2)cc1 [Compound 153],A (100)
11,Cc1cccc(C(Cc2ccccc2)=NNC(=O)Nc2ccc(OC(F)(F)F)cc2)c1 [Compound 39],A (100)
12,O=C(C=NN(Cc1ccc([N+](=O)[O-])cc1)c1cccc(Cl)c1)Nc1ccc(Cl)cc1 [Compound 128],A (100)
13,CC(C(=NNC(=O)Nc1ccc(OC(F)(F)F)cc1)c1ccccc1)c1ccccc1 (stereo not drawn) [Compound 51],A (100)
14,O=[N+]([O-])c1ccc(CC(=NNC(=S)Nc2ccc(Cl)cc2)c2ccccc2)cc1 [Compound 11],A (100)
15,N#Cc1ccc(CC(NNC(=O)Nc2ccc(S(=O)(=O)C(F)(F)F)cc2)c2cccc(Cl)c2)cc1 (stereo not drawn) [Compound 94],A (100)
16,O=C(NN=C(c1ccccc1)C(O)c1ccc(Cl)cc1)Nc1ccc(OC(F)(F)F)cc1 (racemic) [Compound 61],A (100)
17,CC(C)COC(C(=NNC(=O)Nc1ccc(OC(F)(F)F)cc1)c1ccccc1)c1ccccc1 (racemic) [Compound 71],A (100)
18,N#Cc1ccc(CC(=NNC(=O)Nc2ccc(SC(F)(F)F)cc2)c2cccc(Br)c2)cc1 [Compound 28],C (89-80)
19,O=C(NNC(Cc1ccc(Br)cc1)c1ccccc1)Nc1ccc(Cl)cc1 (stereo not drawn) [Compound 110],B (99-90)
20,O=C(C=NN(Cc1ccc(Cl)cc1)c1cccc(Cl)c1)Nc1ccc(Cl)cc1 [Compound 126],A (100)
21,N#Cc1ccc(CN(N=CC(=O)Nc2ccc(OC(F)(F)F)cc2)c2ccccc2)cc1 [Compound 125],A (100)
22,O=C(NNC(Cc1ccc(Cl)cc1)c1cccc(F)c1)Nc1ccc(OC(F)(F)F)cc1 (racemic) [Compound 89],B (99-90)
23,N#Cc1ccc(CN(N=CC(=O)Nc2ccc(Cl)cc2)c2cccc(Cl)c2)cc1 [Compound 130],C (89-80)
